Laboratory results published in patent publication US20100190843A1, “Tubulin Isotype Screening in Cancer Therapy Using Halichondrin B Analogs” (Eisai R&D Management Co., Ltd., priority 2004, published 2010).

What was measured:
[1] = test system: AU565; assay: Cell growth inhibition assay (methylene blue-based); settings: Homo sapiens, continuous exposure 4 or 7 days, at least three experiments
Text: (§1) The following human breast cancer cell lines were obtained from the ATCC. Cells were maintained according to ATCC-recommended culture conditions. AU565 (ATCC Catalog No. ATCC Catalog No. CRL-2351), BT-20 (ATCC Catalog No. HTB-19), MCF7 (ATCC Catalog No. HTB22), MDA-MB-231 (ATCC Catalog No. HTB-26), MDA-MB-435 (ATCC Catalog No. HTB-129), MDA-MB-468 (ATCC Catalog No. HTB-132), HCC38 (ATCC Catalog No. CRL-2314), HCC70 (ATCC Catalog No. CRL-2315), HCC1143 (ATCC Catalog No. CRL-2321), HCC1428 (ATCC Catalog No. CRL-2327), HCC1500 (ATCC Catalog No. CRL-2329), HCC1806 (ATCC Catalog No. CRL-2335), HCC1954 (ATCC Catalog No. CRL-2338), HCC2218 (ATCC Catalog No. CRL-2343), UACC-812 (ATCC Catalog No. CRL-1897), UACC-893 (ATCC Catalog No. CRL-1902), ZR-75-1 (ATCC Catalog No. CRL-1500), ZR-75-30 (ATCC Catalog No. CRL-1504).
(§2) Cultured human breast cancer cells were placed in 96-well plates and grown in the continuous presence of test compounds for 4 or 7 days. To expose the cells to test compounds for 7 days, medium was replaced with fresh medium containing compounds after 4 days of exposure and cells were incubated for 3 additional days. Cell growth was assessed using modifications (Amin et al., Cancer Res., 47:6040-6045, 1987; incorporated herein by reference) of a methylene blue-based microculture assay (Finlay et al., Anal. Biochem., 139:272-277, 1984; incorporated herein by reference).
(§3) To investigate the possible expression of PgP by the cell lines used in this study, the antiproliferative effects of paclitaxel were determined in the presence and absence of verapamil, a known inhibitor of PgP.

[2] = test system: BT-20; assay: as above; settings: Homo sapiens, continuous exposure 4 or 7 days, at least three experiments
Text: as §1, §2, §3

[3] = test system: HC-2218; assay: as above; settings: Homo sapiens, continuous exposure 4 or 7 days, at least three experiments
Text: as §1, §2, §3

[4] = test system: HCC1143; assay: as above; settings: Homo sapiens, continuous exposure 4 or 7 days, at least three experiments
Text: as §1, §2, §3

[5] = test system: HCC1428; assay: as above; settings: Homo sapiens, continuous exposure 4 or 7 days, at least three experiments
Text: as §1, §2, §3

[6] = test system: HCC1500; assay: as above; settings: Homo sapiens, continuous exposure 4 or 7 days, at least three experiments
Text: as §1, §2, §3

[7] = test system: HCC1806; assay: as above; settings: Homo sapiens, continuous exposure 4 or 7 days, at least three experiments
Text: as §1, §2, §3

[8] = test system: HCC1954; assay: as above; settings: Homo sapiens, continuous exposure 4 or 7 days, at least three experiments
Text: as §1, §2, §3

[9] = test system: HCC38; assay: as above; settings: Homo sapiens, continuous exposure 4 or 7 days, at least three experiments
Text: as §1, §2, §3

[10] = test system: HCC70; assay: as above; settings: Homo sapiens, continuous exposure 4 or 7 days, at least three experiments
Text: as §1, §2, §3

[11] = test system: MCF-7; assay: as above; settings: Homo sapiens, MCF7, continuous exposure 4 or 7 days, at least three experiments
Text: as §1, §2, §3

[12] = test system: MDA-MB-231; assay: as above; settings: Homo sapiens, continuous exposure 4 or 7 days, at least three experiments
Text: as §1, §2, §3

[13] = test system: MDA-MB-435; assay: as above; settings: Homo sapiens, continuous exposure 4 or 7 days, at least three experiments
Text: as §1, §2, §3

[14] = test system: MDA-MB-468; assay: as above; settings: Homo sapiens, continuous exposure 4 or 7 days, at least three experiments
Text: as §1, §2, §3

[15] = test system: UACC-812; assay: as above; settings: Homo sapiens, continuous exposure 4 or 7 days, at least three experiments
Text: as §1, §2, §3

[16] = test system: UACC-893; assay: as above; settings: Homo sapiens, continuous exposure 4 or 7 days, at least three experiments
Text: as §1, §2, §3

[17] = test system: ZR-75-1; assay: as above; settings: Homo sapiens, continuous exposure 4 or 7 days, at least three experiments
Text: as §1, §2, §3

[18] = test system: ZR-75-30; assay: as above; settings: Homo sapiens, continuous exposure 4 or 7 days, at least three experiments
Text: as §1, §2, §3

[19] = test system: HCC1419; assay: as above; settings: Homo sapiens, continuous exposure 4 or 7 days, at least three experiments
[20] = test system: panel of 19 human breast cancer cell lines; assay: Cell growth inhibition assay, whole panel; type: cell-based
Text: as §1
as §2, with “To expose the cells to test compounds for 7 days, medium was replaced with fresh medium containing compounds after 4 days of exposure and cells were incubated for 3 additional days.” left out
Antiproliferative effects of four tubulin-binding anticancer agents were evaluated by a methylene blue-based cell growth inhibin assay in a panel of 19 human breast cancer cell lines. […]

C=C1C[C@@H]2CC[C@@]34C[C@H]5O[C@H]6[C@@H](O3)C3O[C@H](CCC3O[C@H]6C5O4)CC(=O)CC3[C@H](CC4O[C@@H](CCC1O2)C[C@@H](C)C4=C)O[C@H](C[C@H](O)CN)[C@@H]3OC (stereo partly drawn) [E7389]
IC50 [1]: 0.65 nM | IC50 [2]: 0.82 nM | IC50 [3]: 1.14 nM | IC50 [4]: 0.43 nM | IC50 [5]: 0.53 nM | IC50 [6]: 0.56 nM | IC50 [7]: 0.74 nM | IC50 [8]: 0.37 nM | IC50 [9]: 0.4 nM | IC50 [10]: 0.63 nM | IC50 [11]: 1.45 nM | IC50 [12]: 1.75 nM | IC50 [13]: 0.29 nM | IC50 [14]: 0.45 nM | IC50 [15]: 1.17 nM | IC50 [16]: 0.31 nM | IC50 [17]: 1.19 nM | IC50 [18]: 1.8 nM | IC50 [19]: 1.59 nM | IC50 ([20]; Homo sapiens, range over the panel of 19 cell lines): 0.29 to 1.8 nM | fold-difference between IC50's in the most sensitive and the least sensitive cell line ([20]; panel of 19 breast cancer cell lines): 6.2 fold
